In PMC2994747, “Molecular Characterization of c-Abl/c-Src Kinase Inhibitors Targeted against Murine Tumour Progenitor Cells that Express Stem Cell Markers” (PLoS ONE, 2010):
Like-named read-outs stand apart in the source and are kept apart here.

Columns and labels:
c-Abl = target: T1, c-Abl (Homo sapiens, UniProt P00519); test: Abl filter-binding kinase assay (Abtide, [γ-32P]ATP); format: biochemical; conditions: isolated Abl; calculated from ID50, ATP-competitive; E0 0.005, S0 0.012 µM
T1 construct: His tag; purchased Upstate (Lake Placid, NY, USA)
Description: Baculovirus-produced recombinant purified his-tagged active against human Src and Abl were purchased from Upstate (Lake Placid, NY, USA).
Src activity was measured in a filter-binding assay using the Src Assay Kit (Upstate, Lake Placid, NY, USA), according to the manufacturer's protocol, using the specific Src peptide substrate [[…]] in the presence of 0.125 pmol of Src and 0.160 pmol of [γ-^32P]ATP. Abl activity was measured in a filter-binding assay using an Abl specific peptide substrate (Abtide, Upstate). Reaction conditions were (in a final volume of 10 µl): 25 mM Tris-HCl pH 7.5, 1 mM DTT, 0.012 µM [γ-^32P]ATP, 0.022 µM c-Abl. Reactions were incubated 10 min at 30°C.The samples (9 µl) were spotted on paper cellulose filters which were washed according to the manufacturer's protocol. Filter-bound radioactivity was measured by liquid scintillation with a Microbeta-Trilux apparatus (PerkinElmer, Waltham, MA, USA).
The ID50 were converted to Ki according to a competitive mechanism with respect to the substrate ATP. […] Since (i) the ATP concentration was limiting, i.e., [ATP], Km(ATP), and (ii) the enzyme concentration was not negligible with respect to the ATP concentration, the classical Cheng-Prusoff relationship was not applicable. Consequently, Ki values were calculated according to [drawing 3] (2) where S0 is the concentration of the competing substrate (ATP) and E0 is the concentration of the enzyme. Each experiment was done in triplicate and mean values were used for the interpolation. Curve fitting was performed with the program GraphPad Prism.

A2C12 [1] = test: MTS cell viability assay; format: cell-based, mouse
Description: (§1) Three human and eleven murine cancer cell lines were used. The human NSCLC cell line A549 (ACC 107) and the human colorectal carcinoma cell line CaCo2 (ACC 169) were obtained from Deutsche Sammlung von Mikroorganismen und Zellkulturen (DSMZ, Braunschweig, Germany). The human hepatocellular carcinoma cell line HepG2 (HB-8065) was obtained from American Type Culture Collection (Manassas, VA, USA). The 11 murine NSCLC cell lines were established as described recently. Cells were grown in monolayer cultures in DMEM containing 10% foetal calf serum, 4 mmol/l L-glutamine and 2% Penicillin/Streptomycin at 37°C in a humidified atmosphere of 95% air and 5% CO2.
(§2) Cell culture viability was monitored by CellTiter96® AQueous One Solution Cell Proliferation Assay (Promega GmbH, Mannheim, Germany). The cells were seeded in triplicates in 96-well microtitre plates and treated with the dual kinase inhibitors or vehicle (0.2% DMSO). After 24 h or 96 h of treatment the MTS tetrazolium reagent was added to the cells and incubated for 1 h. Absorbance at 490 nm was assayed with a Victor3 Wallac 1420 Multilabel counter (PerkinElmer, Waltham, MA, USA).

BetaD5 [2] = test: MTS cell viability assay; format: cell-based, mouse
Description: as §1, §2

GammaA3 [3] = test: MTS cell viability assay; format: cell-based, mouse
Description: as §1, §2

GammaD12 [4] = test: MTS cell viability assay; format: cell-based, mouse; conditions: MTS
Description: as §1, §2

A549 [5] = test: MTS cell viability assay; format: cell-based, human
Description: as §1, §2

CaCo2 [6] = test: MTS cell viability assay; format: cell-based, human
Description: as §1, §2

HepG2 [7] = test: MTS cell viability assay; format: cell-based, human
Description: as §1, §2

A2C12 [8] = test: Cell cycle analysis by flow cytometry; format: cell-based, mouse; conditions: IC50 concentration, 96 h
Description: (§3) CycleTEST™ PLUS DNA Reagent Kit (Becton Dickinson GmbH, Heidelberg, Germany) for cell cycle analysis was used, according to the instructions of the manufacturer. Briefly, the cells were harvested with trypsin, washed with PBS, and resuspended in CycleTEST Buffer. The cells were centrifuged and resuspended in solution A. After incubation for 10 min at room temperature, solution B was added and incubated. After adding solution C, the samples were incubated at 4°C protected from light. The samples were stored on ice and protected from light until analysis by FACScan flow cytometer (Becton Dickinson GmbH, Heidelberg, Germany).

GammaA3 [9] = test: Cell cycle analysis by flow cytometry; format: cell-based, mouse; conditions: IC50 concentration, 96 h
Description: as §3

GammaD12 [10] = test: Cell cycle analysis by flow cytometry; format: cell-based, mouse; conditions: IC50 concentration, 96 h
Description: as §3

A549 [11] = test: Cell cycle analysis by flow cytometry; format: cell-based, human; conditions: IC50 concentration, 96 h
Description: as §3

CaCo2 [12] = test: Cell cycle analysis by flow cytometry; format: cell-based, human; conditions: IC50 concentration, 96 h
Description: as §3

BetaD5 [13] = test: Cell cycle analysis by flow cytometry; format: cell-based, mouse; conditions: IC50 concentration, 96 h
Description: as §3

HepG2 [14] = test: Cell cycle analysis by flow cytometry; format: cell-based, human; conditions: IC50 concentration, 96 h
Description: as §3

[15] = 24 h, read-out: Calculated IC50 after single treatment for 24 h
[16] = 96 h, read-out: Calculated IC50 after daily treatment for 96 h

T1 sequence (P00519 whole entry): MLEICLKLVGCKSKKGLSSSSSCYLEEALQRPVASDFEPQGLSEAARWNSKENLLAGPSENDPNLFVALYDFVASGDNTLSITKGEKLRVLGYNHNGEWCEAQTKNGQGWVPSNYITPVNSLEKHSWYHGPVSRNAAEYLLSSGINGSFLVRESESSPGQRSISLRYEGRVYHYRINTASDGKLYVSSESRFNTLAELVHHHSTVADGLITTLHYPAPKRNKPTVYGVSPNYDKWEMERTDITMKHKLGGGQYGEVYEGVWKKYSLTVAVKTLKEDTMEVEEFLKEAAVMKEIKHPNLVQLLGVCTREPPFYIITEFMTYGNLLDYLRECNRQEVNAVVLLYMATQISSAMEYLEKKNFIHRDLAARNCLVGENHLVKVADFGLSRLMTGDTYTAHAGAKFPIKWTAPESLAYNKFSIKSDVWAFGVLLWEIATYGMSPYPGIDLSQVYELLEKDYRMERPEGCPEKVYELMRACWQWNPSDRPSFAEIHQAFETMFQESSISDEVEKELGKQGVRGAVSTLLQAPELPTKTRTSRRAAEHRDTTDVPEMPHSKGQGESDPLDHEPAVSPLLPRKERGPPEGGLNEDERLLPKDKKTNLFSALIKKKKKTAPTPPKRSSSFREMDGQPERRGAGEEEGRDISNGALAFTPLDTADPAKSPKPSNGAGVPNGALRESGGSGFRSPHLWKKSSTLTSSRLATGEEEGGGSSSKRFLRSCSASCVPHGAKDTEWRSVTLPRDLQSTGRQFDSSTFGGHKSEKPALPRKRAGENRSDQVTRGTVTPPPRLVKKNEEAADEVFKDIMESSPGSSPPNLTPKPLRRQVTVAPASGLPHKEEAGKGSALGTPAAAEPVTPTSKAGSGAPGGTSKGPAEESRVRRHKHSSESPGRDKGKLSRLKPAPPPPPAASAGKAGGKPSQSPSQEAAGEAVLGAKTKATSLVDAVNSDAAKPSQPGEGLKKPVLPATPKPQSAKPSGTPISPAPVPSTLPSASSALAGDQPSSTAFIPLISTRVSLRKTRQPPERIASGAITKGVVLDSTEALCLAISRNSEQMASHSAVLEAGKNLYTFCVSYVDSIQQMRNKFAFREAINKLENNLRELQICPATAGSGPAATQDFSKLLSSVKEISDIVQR

Structure (SMILES) | Ki (c-Abl) | IC50 (A2C12 [1]; [15]) | IC50 (A2C12 [1]; [16]) | IC50 (BetaD5 [2]; [15]) | IC50 (BetaD5 [2]; [16]) | IC50 (GammaA3 [3]; [15]) | IC50 (GammaA3 [3]; [16]) | IC50 (GammaD12 [4]; [15]) | IC50 (GammaD12 [4]; [16]) | IC50 (A549 [5]; [15]) | IC50 (A549 [5]; [16]) | IC50 (CaCo2 [6]; [15]) | IC50 (CaCo2 [6]; [16]) | IC50 (HepG2 [7]; [15]) | Cells in G1 phase (A2C12 [8]) | Cells in G2 phase (A2C12 [8]) | Cells in S phase (A2C12 [8]) | Cells in G1 phase (GammaA3 [9]) | Cells in G2 phase (GammaA3 [9]) | Cells in S phase (GammaA3 [9]) | also measured
CSc1nc(NCCc2ccccc2)c2cnn(C=Cc3ccccc3)c2n1 [Si40] | 0.45 µM | > 100 µM | 7 ± 0.5 µM | 43.6 ± 3.6 µM | 12.9 ± 2.9 µM | > 100 µM | > 20 µM | 26 ± 3 µM | 12.7 ± 0.4 µM | > 100 µM | 16.2 ± 2.1 µM | > 100 µM | 0.4 ± 0.1 µM | > 100 µM | 75.7% | 9.8% | 14.6% | 53.4% | 15.4% | 31.3% | Cells in G1 phase (GammaD12 [10]): 28.4%; Cells in G2 phase (GammaD12 [10]): 2.7%; Cells in S phase (GammaD12 [10]): 68.9%; Cells in G1 phase (A549 [11]): 81%; Cells in G2 phase (A549 [11]): 3.8%; Cells in S phase (A549 [11]): 15.2%; Cells in G1 phase (CaCo2 [12]): 52.5%; Cells in G2 phase (CaCo2 [12]): 10.3%; Cells in S phase (CaCo2 [12]): 37.2%
BrC(Cn1ncc2c(N3CCOCC3)ncnc21)c1ccccc1 (stereo not drawn) [Si51] | 0.22 µM | > 100 µM | > 20 µM | > 100 µM | > 20 µM | > 100 µM | > 20 µM | > 100 µM | > 20 µM | > 100 µM | > 20 µM | > 100 µM | > 20 µM | > 100 µM |  |  |  |  |  |  | 
CSc1nc(NCCc2ccccc2)c2cnn(CC(Cl)c3ccc(F)cc3)c2n1 (stereo not drawn) [Si66] |  | 23.7 ± 2.2 µM | 6.9 ± 0.4 µM | 20.7 ± 0.4 µM | 10.3 ± 0.3 µM | 23.7 ± 2 µM | 9.1 ± 0.2 µM | 14.2 ± 1.7 µM | 4.8 ± 0.4 µM | 21.6 ± 2.6 µM | 7.1 ± 0.1 µM | 44.7 ± 5.9 µM | 6 ± 0.1 µM | 44.7 ± 5.9 µM | 65.3% | 11.8% | 22.9% | 58.4% | 18.5% | 23.1% | IC50 (HepG2 [7]; [16]): 8.2 ± 0.6 µM; Cells in G1 phase (BetaD5 [13]): 52.7%; Cells in G2 phase (BetaD5 [13]): 25.6%; Cells in S phase (BetaD5 [13]): 21.7%; Cells in G1 phase (GammaD12 [10]): 32.1%; Cells in G2 phase (GammaD12 [10]): 6.7%; Cells in S phase (GammaD12 [10]): 61.5%; Cells in G1 phase (A549 [11]): 68.6%; Cells in G2 phase (A549 [11]): 5.3%; Cells in S phase (A549 [11]): 26.1%; Cells in G1 phase (CaCo2 [12]): 61%; Cells in G2 phase (CaCo2 [12]): 5.8%; Cells in S phase (CaCo2 [12]): 33.3%; Cells in G1 phase (HepG2 [14]): 61.1%; Cells in G2 phase (HepG2 [14]): 9.2%; Cells in S phase (HepG2 [14]): 29.8%
